Series [1] has as its target T1, human ABCG2 protein (Homo sapiens, UniProt Q9UNQ0).
T1 sequence (Q9UNQ0 1-655): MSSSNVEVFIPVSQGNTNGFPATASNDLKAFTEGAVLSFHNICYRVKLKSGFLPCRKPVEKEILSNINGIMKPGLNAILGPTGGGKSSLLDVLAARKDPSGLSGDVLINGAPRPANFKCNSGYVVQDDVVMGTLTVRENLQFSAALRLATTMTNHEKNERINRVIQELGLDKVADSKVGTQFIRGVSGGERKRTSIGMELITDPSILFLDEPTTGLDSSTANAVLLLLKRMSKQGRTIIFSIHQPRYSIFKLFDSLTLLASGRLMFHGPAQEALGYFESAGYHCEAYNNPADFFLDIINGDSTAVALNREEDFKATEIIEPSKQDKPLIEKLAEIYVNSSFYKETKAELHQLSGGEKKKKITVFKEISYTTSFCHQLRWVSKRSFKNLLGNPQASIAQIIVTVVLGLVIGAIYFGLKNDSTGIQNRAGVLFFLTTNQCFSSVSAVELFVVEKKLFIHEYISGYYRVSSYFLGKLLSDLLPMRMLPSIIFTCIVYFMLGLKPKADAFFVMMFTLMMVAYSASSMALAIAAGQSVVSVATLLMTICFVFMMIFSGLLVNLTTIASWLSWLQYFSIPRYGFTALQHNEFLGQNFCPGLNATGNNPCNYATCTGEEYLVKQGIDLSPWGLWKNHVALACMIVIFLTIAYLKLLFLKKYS
As to conditions: cited from earlier work.

In series [2] the target is T1, human ABCG2 protein. Description: ABCG2-ATPase activity measurement (vanadate sensitive) in cholesterol loaded, isolated Sf9 membrane vesicles. It counts as biochemical. Also noted: removing the full-length human ABCG2 cDNA (G482 variant) from pcDNA3.1/ABCG2 with SacI digestion; made in house; host or cells: Sf9 insect cells (baculovirus). On the procedure: Thus, for direct measurements with ABCG2 in Sf9 membrane vesicles the membrane is loaded with cholesterol. After homogenization the sample is incubated with 2.5 mg/ml cholesterol-cyclodextrin complex (Cyclolab, Budapest) for 20 minutes at +4°C then followed by centrifugation steps.
ABCG2-Sf9 membrane vesicles (10 ug total protein) or isolated ABCG2 (0.2 ug) and separately added liposomes or reconstituted ABCG2-proteoliposome (0.2 ug) was added to assay mixture (final volume 150 ul) and preincubated for 5 or 20 minutes at 37°C when isolated ABCG2 and liposomes are used.
Reaction is started by adding Mg-ATP pH 7.0 to the reaction mixture at 3 mM and stopped after 20 or 30 minutes (for purified ABCG2) by 5% SDS.
Self-degradation of ATP is checked in each measurement by ABCG2 free samples.
Assay mixture was adapted for different setup with different type of ABCG2 samples. Assay buffer was 40 mM TRIS-MOPS pH 7.0 with 0.5 mM EGTA, 50 mM […] and 2 mM DTT.
For 'ABCG2 in Sf9 membrane vesicle' setup 5 mM Na-azide, 1 mM ouabain, were given to inhibit Sf9 intrinsic ATPases. ABC specific ATPase was measured as vanadate sensitive ATPase after determining the vanadate (1.3 mM) insensitive background.
A concentration set of K2HPO4 (10-50 ug/sample) is used as standard.

Consider three compounds from patent publication EP2820422B1, “ABCG2 TRANSPORTER ASSAY” (priority 2012, dated 2013).

With `COc1ccc2c3c([nH]c2c1)[C@H](C=C(C)C)N1C(=O)[C@@H]2CCCN2C(=O)[C@@H]1C3` [FTC], the “inhibition of basal vanadate-sensitive ATPase activity of ABCG2” value at human ABCG2 protein [1] is recorded as “fully inhibited”. Further, at human ABCG2 protein [2], the “Inhibition (+ modifying agent 0.1% CHAPS)” value was 70% and the “Inhibition (Control)” value came to 70%. On to `C[C@H](CCC(=O)NCCC[N+](C)(C)CCCS(=O)(=O)[O-])[C@H]1CC[C@H]2[C@@H]3[C@H](O)C[C@@H]4C[C@H](O)CC[C@]4(C)[C@H]3C[C@H](O)[C@]12C` [CHAPS, 3-[(3-Cholamidopropyl)dimethylammonio]-1-propanesulfonate], for which, on human ABCG2 protein [2] (cholesterol loaded Sf9 membrane vesicles, concentrations below the CMC, drug stimulation (5 uM quercetin) not altered, Figures 3 and 4), the “effect of modifier agent on basal ABCG2-ATPase activity” value is given as “sigificantly decreased”. On to `Cc1cn(-c2cc(NC(=O)c3ccc(C)c(Nc4nccc(-c5cccnc5)n4)c3)cc(C(F)(F)F)c2)cn1` [Nilotinib], for which, at human ABCG2 protein [2] (isolated Sf9 cell membrane preparations, first an activation, then an inhibition, Figure 6), the “effect on the ABCG2-ATPase activity” value is “biphasic effect”.
